Earlier results as cited in publication PMC6272651, “Novel Orally Active Analgesic and Anti-Inflammatory Cyclohexyl-N-Acylhydrazone Derivatives” (Molecules, 2015).

Target: T1, adenosine receptor, subtype A2A (Rattus norvegicus, UniProt P30543)
T1 construct: gene Adora2a
Test: radioligand displacement of [3H]CGS21680 ([…]) from rat A2A receptors
Conditions: read-out: Binding A2a / % of inhibition ^a

T1 sequence (P30543 whole entry): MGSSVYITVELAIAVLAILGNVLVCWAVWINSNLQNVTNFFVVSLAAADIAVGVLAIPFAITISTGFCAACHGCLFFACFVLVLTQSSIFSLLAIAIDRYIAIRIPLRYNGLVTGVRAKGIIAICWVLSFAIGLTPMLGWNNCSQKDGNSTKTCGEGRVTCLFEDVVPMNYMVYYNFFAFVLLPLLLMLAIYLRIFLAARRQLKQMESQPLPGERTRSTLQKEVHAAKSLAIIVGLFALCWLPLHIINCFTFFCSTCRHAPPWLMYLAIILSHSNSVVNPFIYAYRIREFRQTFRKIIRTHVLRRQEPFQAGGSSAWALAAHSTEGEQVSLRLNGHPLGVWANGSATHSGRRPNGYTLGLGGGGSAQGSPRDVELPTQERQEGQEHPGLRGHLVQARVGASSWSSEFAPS

Ki: 8.2 µM
SMILES: O=C(N/N=C/c1cccs1)c1ccc2c(c1)OCO2 [compound 8, (E)-N'-((thiophen-2-yl)methylene)benzo[d][1,3]dioxole-5-carbohydrazide]
